Assay results taken from PubChem BioAssay (NCI).
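96-well plates; 48 h exposure; 5 concentrations. Endpoints by linear interpolation between flanking doses. Not reached: highest tested concentration assigned. The concentration for full growth arrest is given as TGI.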

How the values were obtained:
Assay in all cases: NCI-60 cell line screen, 48 h
786-0 renal = test system: 786-0 renal
A549 NSCLC = test system: A549 NSCLC
ACHN renal = test system: ACHN renal
BT-549 breast = test system: BT-549 breast
CAKI-1 renal = test system: CAKI-1 renal
CCRF-CEM leukemia = test system: CCRF-CEM leukemia
COLO 205 colon = test system: COLO 205 colon
DU-145 prostate = test system: DU-145 prostate
EKVX NSCLC = test system: EKVX NSCLC
HCT-116 colon = test system: HCT-116 colon
HCT-15 colon = test system: HCT-15 colon
HL-60(TB) leukemia = test system: HL-60(TB) leukemia
HOP-62 NSCLC = test system: HOP-62 NSCLC
HT29 colon = test system: HT29 colon
IGROV1 ovarian = test system: IGROV1 ovarian
K-562 leukemia = test system: K-562 leukemia
KM12 colon = test system: KM12 colon
LOX IMVI melanoma = test system: LOX IMVI melanoma
M14 melanoma = test system: M14 melanoma
MALME-3M melanoma = test system: MALME-3M melanoma
MDA-MB-231 breast = test system: MDA-MB-231 breast
MDA-MB-435 = test system: MDA-MB-435
MDA-N = test system: MDA-N
MOLT-4 leukemia = test system: MOLT-4 leukemia
NCI-H226 lung = test system: NCI-H226 lung
NCI-H23 lung = test system: NCI-H23 lung
NCI-H460 lung = test system: NCI-H460 lung
NCI-H522 lung = test system: NCI-H522 lung
NCI/ADR-RES ovarian = test system: NCI/ADR-RES ovarian
OVCAR-3 ovarian = test system: OVCAR-3 ovarian
OVCAR-4 ovarian = test system: OVCAR-4 ovarian
OVCAR-5 ovarian = test system: OVCAR-5 ovarian
OVCAR-8 ovarian = test system: OVCAR-8 ovarian
PC-3 prostate = test system: PC-3 prostate
RXF 393 renal = test system: RXF 393 renal
SF-268 CNS = test system: SF-268 CNS
SF-295 CNS = test system: SF-295 CNS
SF-539 CNS = test system: SF-539 CNS
SK-MEL-2 melanoma = test system: SK-MEL-2 melanoma
SK-MEL-28 melanoma = test system: SK-MEL-28 melanoma
SK-MEL-5 melanoma = test system: SK-MEL-5 melanoma
SK-OV-3 ovarian = test system: SK-OV-3 ovarian
SN12C renal = test system: SN12C renal
SNB-19 CNS = test system: SNB-19 CNS
SNB-75 CNS = test system: SNB-75 CNS
SW-620 colon = test system: SW-620 colon
T-47D breast = test system: T-47D breast
TK-10 renal = test system: TK-10 renal
U251 CNS = test system: U251 CNS
UACC-257 melanoma = test system: UACC-257 melanoma
UACC-62 melanoma = test system: UACC-62 melanoma
A498 renal = test system: A498 renal
HCC-2998 colon = test system: HCC-2998 colon
HOP-92 NSCLC = test system: HOP-92 NSCLC
MCF7 breast = test system: MCF7 breast
RPMI-8226 leukemia = test system: RPMI-8226 leukemia
SR leukemia = test system: SR leukemia
UO-31 renal = test system: UO-31 renal

COC(=O)C1=C(O)C(C(=O)OC)[C@]2(O)[C@@H](C(=O)OC)[C@H]1[C@H](C)[C@@H](c1ccccc1)[C@@H]2C(=O)OC (stereo partly specified)
TGI (786-0 renal): > 100 µM
TGI (A549 NSCLC): > 100 µM
TGI (ACHN renal): > 100 µM
TGI (BT-549 breast): > 100 µM
TGI (CAKI-1 renal): > 100 µM
TGI (CCRF-CEM leukemia): 70.7 µM
TGI (COLO 205 colon): > 100 µM
TGI (DU-145 prostate): > 100 µM
TGI (EKVX NSCLC): > 100 µM
TGI (HCT-116 colon): > 100 µM
TGI (HCT-15 colon): > 100 µM
TGI (HL-60(TB) leukemia): 62.3 µM
TGI (HOP-62 NSCLC): > 100 µM
TGI (HT29 colon): > 100 µM
TGI (IGROV1 ovarian): 93.5 µM
TGI (K-562 leukemia): > 100 µM
TGI (KM12 colon): > 100 µM
TGI (LOX IMVI melanoma): > 100 µM
TGI (M14 melanoma): > 100 µM
TGI (MALME-3M melanoma): > 100 µM
TGI (MDA-MB-231 breast): > 100 µM
TGI (MDA-MB-435): > 100 µM
TGI (MDA-N): > 100 µM
TGI (MOLT-4 leukemia): > 100 µM
TGI (NCI-H226 lung): > 100 µM
TGI (NCI-H23 lung): > 100 µM
TGI (NCI-H460 lung): > 100 µM
TGI (NCI-H522 lung): 47.1 µM
TGI (NCI/ADR-RES ovarian): > 100 µM
TGI (OVCAR-3 ovarian): > 100 µM
TGI (OVCAR-4 ovarian): > 100 µM
TGI (OVCAR-5 ovarian): > 100 µM
TGI (OVCAR-8 ovarian): > 100 µM
TGI (PC-3 prostate): > 100 µM
TGI (RXF 393 renal): > 100 µM
TGI (SF-268 CNS): > 100 µM
TGI (SF-295 CNS): > 100 µM
TGI (SF-539 CNS): > 100 µM
TGI (SK-MEL-2 melanoma): > 100 µM
TGI (SK-MEL-28 melanoma): > 100 µM
TGI (SK-MEL-5 melanoma): > 100 µM
TGI (SK-OV-3 ovarian): > 100 µM
TGI (SN12C renal): > 100 µM
TGI (SNB-19 CNS): > 100 µM
TGI (SNB-75 CNS): > 100 µM
TGI (SW-620 colon): > 100 µM
TGI (T-47D breast): > 100 µM
TGI (TK-10 renal): > 100 µM
TGI (U251 CNS): > 100 µM
TGI (UACC-257 melanoma): > 100 µM
TGI (UACC-62 melanoma): > 100 µM

CC(C)(Br)C(Br)CCC1(C(Br)CBr)CO1 (stereo unspecified)
TGI (786-0 renal): > 10 µM
TGI (A498 renal): > 10 µM
TGI (A549 NSCLC): > 10 µM
TGI (ACHN renal): > 10 µM
TGI (BT-549 breast): > 10 µM
TGI (CAKI-1 renal): > 10 µM
TGI (CCRF-CEM leukemia): > 10 µM
TGI (COLO 205 colon): > 10 µM
TGI (DU-145 prostate): > 10 µM
TGI (EKVX NSCLC): > 10 µM
TGI (HCC-2998 colon): > 10 µM
TGI (HCT-116 colon): > 10 µM
TGI (HL-60(TB) leukemia): > 10 µM
TGI (HOP-62 NSCLC): > 10 µM
TGI (HOP-92 NSCLC): > 10 µM
TGI (HT29 colon): > 10 µM
TGI (IGROV1 ovarian): > 10 µM
TGI (K-562 leukemia): > 10 µM
TGI (KM12 colon): > 10 µM
TGI (M14 melanoma): > 10 µM
TGI (MCF7 breast): > 10 µM
TGI (MDA-MB-231 breast): > 10 µM
TGI (MDA-MB-435): > 10 µM
TGI (MDA-N): > 10 µM
TGI (MOLT-4 leukemia): > 10 µM
TGI (NCI-H226 lung): > 10 µM
TGI (NCI-H23 lung): > 10 µM
TGI (NCI-H522 lung): > 10 µM
TGI (OVCAR-3 ovarian): > 10 µM
TGI (OVCAR-4 ovarian): > 10 µM
TGI (OVCAR-5 ovarian): > 10 µM
TGI (OVCAR-8 ovarian): > 10 µM
TGI (PC-3 prostate): > 10 µM
TGI (RPMI-8226 leukemia): > 10 µM
TGI (RXF 393 renal): > 10 µM
TGI (SF-268 CNS): > 10 µM
TGI (SF-295 CNS): > 10 µM
TGI (SF-539 CNS): > 10 µM
TGI (SK-MEL-28 melanoma): > 10 µM
TGI (SK-MEL-5 melanoma): > 10 µM
TGI (SK-OV-3 ovarian): > 10 µM
TGI (SN12C renal): > 10 µM
TGI (SNB-19 CNS): > 10 µM
TGI (SNB-75 CNS): > 10 µM
TGI (SR leukemia): > 10 µM
TGI (SW-620 colon): > 10 µM
TGI (T-47D breast): > 10 µM
TGI (TK-10 renal): > 10 µM
TGI (U251 CNS): > 10 µM
TGI (UACC-62 melanoma): > 10 µM
TGI (UO-31 renal): > 10 µM

COC(=O)[C@]1(c2cc3ccccc3[nH]2)CC2CN(C(=O)OCc3ccccc3)C1C=C2OC (stereo partly specified)
TGI (786-0 renal): > 100 µM
TGI (A549 NSCLC): > 100 µM
TGI (ACHN renal): 74.3 µM
TGI (BT-549 breast): 82.3 µM
TGI (CAKI-1 renal): > 100 µM
TGI (CCRF-CEM leukemia): 69.3 µM
TGI (COLO 205 colon): 38 µM
TGI (DU-145 prostate): > 100 µM
TGI (EKVX NSCLC): > 100 µM
TGI (HCC-2998 colon): 46.8 µM
TGI (HCT-116 colon): > 100 µM
TGI (HCT-15 colon): > 100 µM
TGI (HL-60(TB) leukemia): 43.7 µM
TGI (HOP-62 NSCLC): > 100 µM
TGI (HOP-92 NSCLC): 80.6 µM
TGI (HT29 colon): 63.6 µM
TGI (IGROV1 ovarian): > 100 µM
TGI (K-562 leukemia): > 100 µM
TGI (KM12 colon): > 100 µM
TGI (LOX IMVI melanoma): > 100 µM
TGI (M14 melanoma): 47 µM
TGI (MALME-3M melanoma): 66.4 µM
TGI (MCF7 breast): 58.5 µM
TGI (MDA-MB-231 breast): 56.9 µM
TGI (MDA-MB-435): 55.3 µM
TGI (MDA-N): > 100 µM
TGI (MOLT-4 leukemia): 64.4 µM
TGI (NCI-H226 lung): 55 µM
TGI (NCI-H23 lung): > 100 µM
TGI (NCI-H460 lung): > 100 µM
TGI (NCI-H522 lung): 91.3 µM
TGI (NCI/ADR-RES ovarian): > 100 µM
TGI (OVCAR-3 ovarian): 91.4 µM
TGI (OVCAR-4 ovarian): 98.8 µM
TGI (OVCAR-5 ovarian): 44.2 µM
TGI (OVCAR-8 ovarian): > 100 µM
TGI (PC-3 prostate): > 100 µM
TGI (RPMI-8226 leukemia): 72.1 µM
TGI (RXF 393 renal): 57.6 µM
TGI (SF-268 CNS): > 100 µM
TGI (SF-295 CNS): > 100 µM
TGI (SF-539 CNS): 55.2 µM
TGI (SK-MEL-2 melanoma): 44 µM
TGI (SK-MEL-28 melanoma): > 100 µM
TGI (SK-OV-3 ovarian): > 100 µM
TGI (SN12C renal): > 100 µM
TGI (SNB-19 CNS): > 100 µM
TGI (SNB-75 CNS): 71.2 µM
TGI (SW-620 colon): > 100 µM
TGI (T-47D breast): > 100 µM
TGI (TK-10 renal): > 100 µM
TGI (U251 CNS): > 100 µM
TGI (UACC-257 melanoma): 49.9 µM
TGI (UACC-62 melanoma): 36.7 µM
